From patent US7906522B2, “2-aminoquinazoline derivatives” (Kyowa Hakko Kirin Co., Ltd, priority 2005, dated 2011)

Target: T1, Activated human p38α (Homo sapiens, UniProt Q16539)
T1 construct: purchased Upstate Biotechnology Inc. 14-251
Assay: p38MAP kinase inhibition test
Type: biochemical
Conditions: at a concentration of 1 μmol/L; substrate myelin basic protein, ATP 20 μmol/L, [γ-32P]ATP; read-out: enzyme inhibitory activity
Experimental: p38MAP Kinase Inhibition Test
Activated human p38α was purchased from Upstate Biotechnology Inc. (Catalog No. 14-251). P38MAP kinase inhibitory activity was measured by the procedure described below with reference to the method by Whitmarsh A. J. and Davis R. J. [Methods in Enzymology (Method. Enzymol.), vol. 332, p. 319-336 (2001)]. As the substrate to be phosphorylated, a myelin basic protein (Catalog No. 133-13493, Wako Pure Chemical Industries, Ltd.) (20 μg/assay) was used. The reaction was carried out in a solution containing 3-[N-Morpholino]propanesulfonic acid (MOPS) (20 mmol/L, pH 7.2), β-glycerophosphoric acid (Sigma Corp.) (25 mmol/L), ethylenebis(oxyethylenenitrilo)tetraacetic acid (EGTA) (1 mmol/L), […] (Sigma-Aldrich Corp.) (1 mmol/L), dithiothreitol (DTT, Wako Pure Chemical Industries, Ltd.) (1 mmol/L), adenosine 5′-triphosphate (ATP, Sigma Corp.) (20 μmol/L), and MgCl2 (18.75 mmol/L) (total 40 μL/assay). The reaction was started by adding human p38α and [γ-^32P]ATP (1 μCi/assay), and incubation was performed at 30° C. for 15 minutes. The reaction was terminated by adding 4.5% v/v phosphoric acid (10 μL/well). Then, 45 μL of the reaction mixture was adsorbed onto phosphocellulose paper (p81 paper, Code No. 3698023, Whatman International, Maidstone, UK). The phosphocellulose paper was washed with 0.75% v/v phosphoric acid. Then, the radioactivity of the phosphorylated myelin basic protein ([^32P]) remaining on the phosphocellulose paper was measured with a scintillation counter (TRI-CARB2700TR, PerkinElmer, Boston, Mass., USA) using program No. 27 (data mode: cpm, measurement time: 1 min, Background substract: none, energy range measured: LL 0.0-UL 2000) or a scintillation counter (LS6500, BeckmanCoulter, Fullerton, Calif., USA) using program No. 17 (data mode: cpm, measurement time: 1 min, Background substract: none, energy range measured: high). The test compound was dissolved in DMSO before addition.

T1 sequence (Q16539 whole entry): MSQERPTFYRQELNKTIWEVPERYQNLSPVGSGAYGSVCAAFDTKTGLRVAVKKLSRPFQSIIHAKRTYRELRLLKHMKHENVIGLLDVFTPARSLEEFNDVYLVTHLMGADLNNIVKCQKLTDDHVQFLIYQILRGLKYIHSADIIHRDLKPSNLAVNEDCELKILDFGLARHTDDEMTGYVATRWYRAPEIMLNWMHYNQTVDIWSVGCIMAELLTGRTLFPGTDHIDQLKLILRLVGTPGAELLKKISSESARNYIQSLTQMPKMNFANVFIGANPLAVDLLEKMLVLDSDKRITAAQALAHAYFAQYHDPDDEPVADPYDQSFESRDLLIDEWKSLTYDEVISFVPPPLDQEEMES

Inhibition at 1 µM, ≥ 50%:
CCCOC(=O)c1c(O)c(-c2ccccc2Cl)cc2cnc(NC(C)C)nc12 [Compound 63, 6-(2-Chlorophenyl)-7-hydroxy-2-isopropylamino-8-(propoxycarbonyl)quinazoline]
CCOC(=O)N1CCC(Nc2ncc3cc(C(=O)c4ccccc4)c(O)cc3n2)CC1 [Compound 137, 6-Benzoyl-2-[1-(ethoxycarbonyl)piperidin-4-ylamino]-7-hydroxyquinazoline]
Cc1ccc(NC(=O)c2cnccn2)cc1-c1ccc2nc(NC(C)C)ncc2c1 [Compound 261, 2-Isopropylamino-6-[2-methyl-5-(pyrazinylcarbonylamino)phenyl]quinazoline]
COc1cccc(C(=O)c2cc3cnc(NC(C)C)nc3cc2O)c1 [Compound 121, 7-Hydroxy-2-isopropylamino-6-(3-methoxybenzoyl)quinazoline]
CC(C)Nc1ncc2cc(C(=O)c3cccc(Cl)c3)c(O)cc2n1 [Compound 120, 6-(3-Chlorobenzoyl)-7-hydroxy-2-(isopropylamino)quinazoline]
CC[C@H](C)Nc1ncc2cc(C(=O)c3cccc(C)c3)c(O)cc2n1 [Compound 135, (S)-2-(sec-Butylamino)-7-hydroxy-6-(3-methylbenzoyl)quinazoline]
COc1ccc(NC(C)=O)cc1-c1cc2cnc(NC(C)C)nc2cc1OC [Compound 234, 6-(5-Acetylamino-2-methoxyphenyl)-2-isopropylamino-7-methoxyquinazoline]
CC(C)Nc1ncc2cc(-c3ccccc3Cl)c(OCC(C)(C)O)c(C(C)(C)O)c2n1 [Compound 81, 6-(2-Chlorophenyl)-8-(1-hydroxy-1-methylethyl)-7-(2-hydroxy-2-methylpropyloxy)-2-(isopropylamino)quinazoline]
Cc1ccc(NC(=O)c2ccnc(N3CCOCC3)c2)cc1-c1ccc2nc(NC(C)C)ncc2c1 [Compound 256, 2-Isopropylamino-6-{2-methyl-5-[(2-morpholinopyridin-4-yl)carbonylamino]phenyl}quinazoline]
O=C(c1ccccc1)c1cc2cnc(NC3CCOCC3)nc2cc1O [Compound 138, 6-Benzoyl-7-hydroxy-2-(4-tetrahydropyranylamino)quinazoline]
CC(C)Nc1ncc2cc(-c3cccc(C(=O)NC4CC4)c3)ccc2n1 [Compound 270, 6-[3-(Cyclopropylcarbamoyl)phenyl]-2-(isopropylamino)quinazoline]
COc1cc2nc(NC(C)C)ncc2cc1-c1cccc(NC(C)=O)c1 [Compound 52, 6-[(3-Acetylamino)phenyl]-2-isopropylamino-7-methoxyquinazoline]
COc1cc2nc(NCC(C)C)ncc2cc1-c1ccccc1Cl [Compound 151, 6-(2-Chlorophenyl)-2-isobutylamino-7-methoxyquinazoline]
Cc1ccc(NC(=O)c2ccc[nH]2)cc1-c1ccc2nc(NC(C)C)ncc2c1 [Compound 253, 2-Isopropylamino-6-{2-methyl-5-[(1H-pyrrol-2-yl)carbonylamino]phenyl}quinazoline]
COc1cc2nc(NC(C)C)ncc2cc1-c1ccccc1C=O [Compound 57, 6-(2-Formylphenyl)-2-isopropylamino-7-methoxyquinazoline]
COc1cc2nc(NC(C)C)ncc2cc1-c1ccccc1C(F)(F)F [Compound 192, 2-Isopropylamino-7-methoxy-6-(2-trifluoromethylphenyl)quinazoline]
COc1cc2nc(NC(C)C)ncc2cc1-c1ccccc1C=NO [Compound 58]
CC(C)Nc1ncc2cc(-c3ccccc3Cl)c(-c3cccc(C(=O)O)c3)cc2n1 [Compound 42, 7-(3-Carboxyphenyl)-6-(2-chlorophenyl)-2-isopropylaminoquinazoline]
COc1cc2nc(N[C@H]3CC[C@H](NS(C)(=O)=O)CC3)ncc2cc1-c1ccccc1Cl [Compound 146, 6-(2-Chlorophenyl)-7-methoxy-2-[trans-4-(methylsulfonylamino)cyclohexylamino]quinazoline]
Cc1ccccc1-c1cc2cnc(NC(C)C)nc2cc1O [Compound 245, 7-Hydroxy-2-isopropylamino-6-(2-methylphenyl)quinazoline]
COc1cc2nc(NC(C)C)ncc2cc1-c1ccc(F)cc1F [Compound 3, 6-(2,4-Difluorophenyl)-2-isopropylamino-7-methoxyquinazoline]
Cc1ccc(C(=O)NC2CC2)cc1-c1ccc2nc(NC(C)C)ncc2c1 [Compound 268, 6-(5-Cyclopropylcarbamoyl-2-methylphenyl)-2-(isopropylamino)quinazoline]
COc1cc2nc(NC(C)C)ncc2cc1-c1cccc(OCc2ccccc2)c1 [Compound 195, 6-[3-(Benzyloxy)phenyl]-2-isopropylamino-7-methoxyquinazoline]
COc1cc2nc(Nc3c(F)cccc3F)ncc2cc1-c1ccccc1Cl [Compound 16, 6-(2-Chlorophenyl)-2-(2,6-difluoroanilino)-7-methoxyquinazoline]
CC(C)Nc1ncc2cc(-c3ccccc3Cl)c(OCc3ccccc3)cc2n1 [Compound 27, 7-Benzyloxy-6-(2-chlorophenyl)-2-isopropylaminoquinazoline]
CC(C)Nc1ncc2cc(-c3ccccc3Cl)c(OCCO)cc2n1 [Compound 23, 6-(2-Chlorophenyl)-7-(2-hydroxyethyloxy)-2-isopropylaminoquinazoline]
CC(C)Nc1ncc2cc(-c3cccc([N+](=O)[O-])c3)c(OCc3ccccc3)cc2n1 [Compound 282, 7-Benzyloxy-2-isopropylamino-6-(3-nitrophenyl)quinazoline]
COc1cc2nc(NC(C)C)ncc2cc1-c1ccco1 [Compound 208, 6-(2-Furyl)-2-isopropylamino-7-methoxyquinazoline]
COc1cc2nc(NC(C)C)ncc2cc1C(=O)c1cccc(F)c1 [Compound 116, 6-(3-Fluorobenzoyl)-2-isopropylamino-7-methoxyquinazoline]
COc1cc2nc(NC(C)C)ncc2cc1-c1cc(NC(=O)c2ccc[nH]2)ccc1C [Compound 232, 2-Isopropylamino-7-methoxy-6-{2-methyl-5-[(1H-pyrrol-2-yl)carbonylamino]phenyl}quinazoline]
COc1cccc(-c2cc3cnc(NC(C)C)nc3cc2OC)c1 [Compound 201, 2-Isopropylamino-7-methoxy-6-(3-methoxyphenyl)quinazoline]
CC(C)Nc1ncc2cc(-c3ccccc3Cl)c(O)c(-c3ccccc3Cl)c2n1 [Compound 98, 6,8-Di(2-chlorophenyl)-7-hydroxy-2-(isopropylamino)quinazoline]
COc1cc2nc(NC(C)C)ncc2cc1C(=O)c1cccc(C)c1 [Compound 114, 2-Isopropylamino-7-methoxy-6-(3-methylbenzoyl)quinazoline]
CS(=O)(=O)N1CCC(Nc2ncc3cc(C(=O)c4ccccc4)c(O)cc3n2)CC1 [Compound 136, 6-Benzoyl-7-hydroxy-2-[1-(methylsulfonyl)piperidin-4-ylamino]quinazoline]
Cc1ccccc1-c1cc2cnc(N[C@@H](C)C3CCCCC3)nc2cc1O [Compound 172, (S)-2-(1-cyclohexylethylamino)-7-hydroxy-6-(2-methylphenyl)quinazoline]
COc1cc2nc(NC(C)C)ncc2cc1-c1cccc(NC(=O)c2ccnc(N3CCOCC3)c2)c1 [Compound 53, 2-Isopropylamino-7-methoxy-6-{3-[(2-morpholinopyridin-4-yl)carbonylamino]phenyl}quinazoline]
NC(=O)N1CCC(Nc2ncc3cc(-c4ccccc4Cl)c(O)cc3n2)CC1 [Compound 157, 2-(1-Carbamoylpiperidin-4-ylamino)-6-(2-chlorophenyl)-7-hydroxyquinazoline]
COc1cc2nc(NC3CCN(S(C)(=O)=O)CC3)ncc2cc1-c1ccccc1C=O [Compound 237, 6-(2-Formylphenyl)-7-methoxy-2-[1-(methylsulfonyl)piperidin-4-ylamino]quinazoline]
CCOC(=O)COc1cc2nc(NC(C)C)ncc2cc1-c1ccccc1Cl [Compound 32, 6-(2-Chlorophenyl)-7-(ethoxycarbonylmethyloxy)-2-isopropylaminoquinazoline]
